Data as given in publication PMC6394990, “Detailed characterization of the solution kinetics and thermodynamics of biotin, biocytin and HABA binding to avidin and streptavidin” (PLoS ONE, 2019).
Like-named read-outs stand apart in the source and are kept apart here.

Molecular target: T1, avidin (AV) (Gallus gallus, UniProt P02701)
T1 construct: purchased Calbiochem (La Jolla, CA)
Test: Stopped-flow association kinetics of dye-labeled biotin probes binding to avidin (F(t), rF(t); Arrhenius plots/global fitting)
Parameters: ln(k) / dS+ / dG+ / Eon for BFl / b of the line y = m1x+b1: unit not given here
Settings: for k(average): k (full value)
Protocol: These reactions were carried out in a buffered solution of 10 mM Tris-HCl, 100 mM KCl, 2.5 mM MgCl2 and 1 mM CaCl2 at pH 8 and only AV-BcO reactions included pH 9 and 10. The concentrations, after mixing, were of 20 nM of dye-labeled B7 probe and 260 nM, 520 nM or 1040 nM of AV; and 200 nM, 300 nM, 400 nM or 800 nM of SAV at temperatures of 10, 15, 20 and 25°C. The deglycosylation of AV (for comparative association reactions) was carried out using the provided standard protocol with endoglycosidase H [47], both with and without incubation of a denaturant solution (2% SDS and 1M 2-mercaptoethanol).
The reactions were collected with the SF instrument, described previously. The fluorescence signal was collected through a 520 nm interference filter (Oriel Corp., Stratford, CT) with a detector time constant and SF dead time of 1 μs and 1 ms, respectively. The excitation light was provided by the Coherent Ar^+ ion laser (described above) at 488 nm with […] of incident power on the reaction cuvette. The laser source was followed by the photo-elastic modulator described above with the axis oriented 45^o with respect to the electric vector of the incident light and with the half-wave modulation (50 kHz) set for 488 nm excitation. The demodulation circuitry following the photomultiplier provided a DC(t) and a rectified AC(t) which were converted to digital data by a high-speed digitizer (PCI-5122) from National Instruments (Austin, TX) with 14-bit resolution and 100 MHz bandwidth, through channels 0 and 1. The data acquisition was controlled by LabVIEW (Vr 8) software at a collection rate of 6120 data points/second and stored in spreadsheets. The AC(t) and DC(t) data were baseline corrected before obtaining the signal ratio (Eq 4) as a function of time (ρt).
The constant AGain is the instrumental amplitude gain and was evaluated by solving ρ(t) using the known steady state anisotropy (rss) of the complexes which is equivalent to the r(t) at t = ∞; and H, obtained from the equivalent grating factor (G) for the filters and photo multiplier tubes in the SF. For the probes used in here G was 0.82 and H = (1-G)/(1+G) = 0.099. Knowing Again and H, the AC(t) and DC(t) signals can be solved for r(t) and F(t) (Eqs 4 and 5) and the normalized fluorescence, F¯(t) , and corrected fluorescence anisotropy, rF¯(t), were obtained when F¯(0) and rF¯(0) were scaled to 1 at t = 0.
The F¯(t) (Eq 6) is equivalent to (I||) + 2 (I⊥) and proportional to quantum yield (QYi), molar absorptivity (εi) and to the formation or disappearance of the emitting species Xi(t); and rF¯(t) including the steady state anisotropies (rss) of each fluorescent species (Eq 7).
The possible reaction models were discriminated by the squared residuals of the observed and calculated association traces of both fluorescence and anisotropy fluorescence signals, F¯(t) and rF¯(t) , respectively.

T1 sequence (P02701 25-152): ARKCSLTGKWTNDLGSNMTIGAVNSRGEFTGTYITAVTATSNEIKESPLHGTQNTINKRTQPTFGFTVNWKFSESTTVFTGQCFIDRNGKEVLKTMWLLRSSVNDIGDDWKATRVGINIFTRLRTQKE

NC(CCCCNC(=O)CCCC[C@@H]1SC[C@@H]2NC(=O)N[C@@H]21)C(=O)NCCCCCNC(=O)c1ccc(-c2c3cc(F)c(=O)cc-3oc3cc(O)c(F)cc23)c(C(=O)O)c1 (some centres unmarked) [BcO, Oregon green 488 Biocytin]
kon fold slower than Green's 7 × 10^7 M^-1s^-1 (25°C and pH 8 vs 25°C and pH 5): 7.4 X
fold by which the SPR kon (ref 20) is slower than the kon of the probe (AV): ~ 5 X
b of the line y = m1x+b1 (AV 1, reacting with BcO): 40.2925
slope, m of the line y = m1x+b1 (AV 1, reacting with BcO, x = 1/Temp): -7277.8
kon by corrected fluorescence anisotropy rF(t) (AV-BcO, 10 °C, 260 nM): 2.7e+06 ± 100000 M⁻¹ s⁻¹
kon (AV-BcO, 10 °C, 260 nM, read-out: kon by corrected fluorescence anisotropy rF(t)): 2.65e+06 M⁻¹ s⁻¹
kon (AV-BcO, 10 °C, 260 nM, read-out: kon by fluorescence change F(t)): 2.4e+06 ± 100000 M⁻¹ s⁻¹
kon (AV-BcO, 10 °C, 260 nM, read-out: kon by fluorescence change F(t), right block without spread): 2.42e+06 M⁻¹ s⁻¹
kon by corrected fluorescence anisotropy rF(t) (AV-BcO, 10 °C, 520 nM): 2.7e+06 ± 100000 M⁻¹ s⁻¹
kon (AV-BcO, 10 °C, 520 nM, read-out: kon by corrected fluorescence anisotropy rF(t)): 2.69e+06 M⁻¹ s⁻¹
kon (AV-BcO, 10 °C, 520 nM, read-out: kon by fluorescence change F(t)): 2.6e+06 ± 200000 M⁻¹ s⁻¹
kon (AV-BcO, 10 °C, 520 nM, read-out: kon by fluorescence change F(t), right block without spread): 2.61e+06 M⁻¹ s⁻¹
kon by corrected fluorescence anisotropy rF(t) (AV-BcO, 10 °C, 1040 nM): 2.7e+06 ± 100000 M⁻¹ s⁻¹
kon (AV-BcO, 10 °C, 1040 nM, read-out: kon by corrected fluorescence anisotropy rF(t)): 2.72e+06 M⁻¹ s⁻¹
kon (AV-BcO, 10 °C, 1040 nM, read-out: kon by fluorescence change F(t)): 2.5e+06 ± 200000 M⁻¹ s⁻¹
kon (AV-BcO, 10 °C, 1040 nM, read-out: kon by fluorescence change F(t), right block without spread): 2.52e+06 M⁻¹ s⁻¹
kon (AV-BcO, 10 °C, average of F(t) and rF(t) at 260, 520, 1040 nM, read-out: kon, Average): 2.6e+06 M⁻¹ s⁻¹
kon by corrected fluorescence anisotropy rF(t) (AV-BcO, 15 °C, 260 nM): 4e+06 ± 100000 M⁻¹ s⁻¹
kon (AV-BcO, 15 °C, 260 nM, read-out: kon by corrected fluorescence anisotropy rF(t)): 4e+06 M⁻¹ s⁻¹
kon (AV-BcO, 15 °C, 260 nM, read-out: kon by fluorescence change F(t)): 4.1e+06 ± 100000 M⁻¹ s⁻¹
kon (AV-BcO, 15 °C, 260 nM, read-out: kon by fluorescence change F(t), right block without spread): 4.1e+06 M⁻¹ s⁻¹
kon by corrected fluorescence anisotropy rF(t) (AV-BcO, 15 °C, 520 nM): 3.82e+06 ± 100000 M⁻¹ s⁻¹
kon (AV-BcO, 15 °C, 520 nM, read-out: kon by corrected fluorescence anisotropy rF(t)): 3.82e+06 M⁻¹ s⁻¹
kon (AV-BcO, 15 °C, 520 nM, read-out: kon by fluorescence change F(t)): 3.95e+06 ± 100000 M⁻¹ s⁻¹
kon (AV-BcO, 15 °C, 520 nM, read-out: kon by fluorescence change F(t), right block without spread): 3.95e+06 M⁻¹ s⁻¹
kon by corrected fluorescence anisotropy rF(t) (AV-BcO, 15 °C, 1040 nM): 4e+06 ± 200000 M⁻¹ s⁻¹
kon (AV-BcO, 15 °C, 1040 nM, read-out: kon by corrected fluorescence anisotropy rF(t)): 4e+06 M⁻¹ s⁻¹
kon (AV-BcO, 15 °C, 1040 nM, read-out: kon by fluorescence change F(t)): 3.9e+06 ± 200000 M⁻¹ s⁻¹
kon (AV-BcO, 15 °C, 1040 nM, read-out: kon by fluorescence change F(t), right block without spread): 3.9e+06 M⁻¹ s⁻¹
kon (AV-BcO, 15 °C, average of F(t) and rF(t) at 260, 520, 1040 nM, read-out: kon, Average): 4e+06 M⁻¹ s⁻¹
kon (AV-BcO, 20 °C, 260 nM, read-out: kon by corrected fluorescence anisotropy rF(t)): 5.9e+06 M⁻¹ s⁻¹
kon (AV-BcO, 20 °C, 260 nM, read-out: kon by fluorescence change F(t)): 5.7e+06 ± 100000 M⁻¹ s⁻¹
kon (AV-BcO, 20 °C, 260 nM, read-out: kon by fluorescence change F(t), right block without spread): 5.7e+06 M⁻¹ s⁻¹
kon by corrected fluorescence anisotropy rF(t) (AV-BcO, 20 °C, 520 nM): 5.8e+06 ± 100000 M⁻¹ s⁻¹
kon (AV-BcO, 20 °C, 520 nM, read-out: kon by corrected fluorescence anisotropy rF(t)): 5.8e+06 M⁻¹ s⁻¹
kon (AV-BcO, 20 °C, 520 nM, read-out: kon by fluorescence change F(t)): 5.9e+06 ± 300000 M⁻¹ s⁻¹
kon (AV-BcO, 20 °C, 520 nM, read-out: kon by fluorescence change F(t), right block without spread): 5.9e+06 M⁻¹ s⁻¹
kon by corrected fluorescence anisotropy rF(t) (AV-BcO, 20 °C, 1040 nM): 6.1e+06 ± 100000 M⁻¹ s⁻¹
kon (AV-BcO, 20 °C, 1040 nM, read-out: kon by corrected fluorescence anisotropy rF(t)): 6.1e+06 M⁻¹ s⁻¹
kon (AV-BcO, 20 °C, 1040 nM, read-out: kon by fluorescence change F(t)): 6e+06 ± 100000 M⁻¹ s⁻¹
kon (AV-BcO, 20 °C, 1040 nM, read-out: kon by fluorescence change F(t), right block without spread): 6e+06 M⁻¹ s⁻¹
kon (AV-BcO, 20 °C, average of F(t) and rF(t) at 260, 520, 1040 nM, read-out: kon, Average): 5.9e+06 M⁻¹ s⁻¹
kon (AV-BcO, 25 °C, 260 nM, read-out: kon by corrected fluorescence anisotropy rF(t)): 9.5e+06 M⁻¹ s⁻¹
kon (AV-BcO, 25 °C, 260 nM, read-out: kon by fluorescence change F(t)): 9.5e+06 ± 100000 M⁻¹ s⁻¹
kon (AV-BcO, 25 °C, 260 nM, read-out: kon by fluorescence change F(t), right block without spread): 9.5e+06 M⁻¹ s⁻¹
kon (AV-BcO, 25 °C, 520 nM, read-out: kon by corrected fluorescence anisotropy rF(t)): 9.5e+06 M⁻¹ s⁻¹
kon (AV-BcO, 25 °C, 520 nM, read-out: kon by fluorescence change F(t)): 9.5e+06 ± 300000 M⁻¹ s⁻¹
kon (AV-BcO, 25 °C, 520 nM, read-out: kon by fluorescence change F(t), right block without spread): 9.5e+06 M⁻¹ s⁻¹
kon by corrected fluorescence anisotropy rF(t) (AV-BcO, 25 °C, 1040 nM): 9.4e+06 ± 200000 M⁻¹ s⁻¹
kon (AV-BcO, 25 °C, 1040 nM, read-out: kon by corrected fluorescence anisotropy rF(t)): 9.4e+06 M⁻¹ s⁻¹
kon (AV-BcO, 25 °C, 1040 nM, read-out: kon by fluorescence change F(t)): 9.7e+06 ± 300000 M⁻¹ s⁻¹
kon (AV-BcO, 25 °C, 1040 nM, read-out: kon by fluorescence change F(t), right block without spread): 9.7e+06 M⁻¹ s⁻¹
kon (AV-BcO, 25 °C, average of F(t) and rF(t) at 260, 520, 1040 nM, read-out: kon, Average): 9.5e+06 M⁻¹ s⁻¹
Ea^Forward (AV, pH 8): 14.4 ± 0.6 kcal/mol
ln(k) (AV, pH8, 10 (283.15 K)): 14.8
k(average) (AV, pH8, 10 (283.15 K)): 2.60E+06
kon (AV, pH8, 10 (283.15 K), k (scaled)): 2.6e+06 M⁻¹ s⁻¹
ln(k) (AV, pH8, 15 (288.15 K)): 15.2
k(average) (AV, pH8, 15 (288.15 K)): 3.90E+06
kon (AV, pH8, 15 (288.15 K), k (scaled)): 3.9e+06 M⁻¹ s⁻¹
ln(k) (AV, pH8, 20 (293.15 K)): 15.6
k(average) (AV, pH8, 20 (293.15 K)): 5.90E+06
kon (AV, pH8, 20 (293.15 K), k (scaled)): 5.9e+06 M⁻¹ s⁻¹
ln(k) (AV, pH8, 25 (298.15 K)): 16.1
k(average) (AV, pH8, 25 (298.15 K)): 9.50E+06
kon (AV, pH8, 25 (298.15 K), k (scaled)): 9.5e+06 M⁻¹ s⁻¹
ΔG^ǂ (AV, pH 8, forward): 4.6 ± 0.3 kcal/mol
ΔS^ǂ (AV, pH 8, forward): 33.0 ± 2.5 cal/°K·mol
Ea^Forward (AV, pH 9): 13.9 ± 0.7 kcal/mol
ln(k) (AV, pH 9, 10 (283.15 K)): 14.7
k(average) (AV, pH 9, 10 (283.15 K)): 2.31E+06
kon (AV, pH 9, 10 (283.15 K), k (scaled)): 2.3e+06 M⁻¹ s⁻¹
ln(k) (AV, pH 9, 15 (288.15 K)): 15.0
k(average) (AV, pH 9, 15 (288.15 K)): 3.36E+06
